Drawing on the Kinase Knowledgebase extract (Sharma et al. 2016), this text covers IC50 for 28 compounds.

Structures are written as SMILES.

For orientation: IC50 means the concentration at which inhibition is half-maximal.

In experiment [1] the target is PIK3CD (Human) (UniProt O00329). In words: Cell-Based Assay. The following applies: raji.
Another experiment addresses PIK3CB (Human) (UniProt P42338). As to the kind of experiment: Enzyme Assay.
In experiment [2] the target is PIK3CD (Human) (UniProt O00329). As to the kind of experiment: Enzyme Assay.
The next experiment addresses PIK3CG (human) (UniProt P48736). As to the kind of experiment: Enzyme Assay.

PIK3CB (Human), sequence (P42338 whole entry, looked up): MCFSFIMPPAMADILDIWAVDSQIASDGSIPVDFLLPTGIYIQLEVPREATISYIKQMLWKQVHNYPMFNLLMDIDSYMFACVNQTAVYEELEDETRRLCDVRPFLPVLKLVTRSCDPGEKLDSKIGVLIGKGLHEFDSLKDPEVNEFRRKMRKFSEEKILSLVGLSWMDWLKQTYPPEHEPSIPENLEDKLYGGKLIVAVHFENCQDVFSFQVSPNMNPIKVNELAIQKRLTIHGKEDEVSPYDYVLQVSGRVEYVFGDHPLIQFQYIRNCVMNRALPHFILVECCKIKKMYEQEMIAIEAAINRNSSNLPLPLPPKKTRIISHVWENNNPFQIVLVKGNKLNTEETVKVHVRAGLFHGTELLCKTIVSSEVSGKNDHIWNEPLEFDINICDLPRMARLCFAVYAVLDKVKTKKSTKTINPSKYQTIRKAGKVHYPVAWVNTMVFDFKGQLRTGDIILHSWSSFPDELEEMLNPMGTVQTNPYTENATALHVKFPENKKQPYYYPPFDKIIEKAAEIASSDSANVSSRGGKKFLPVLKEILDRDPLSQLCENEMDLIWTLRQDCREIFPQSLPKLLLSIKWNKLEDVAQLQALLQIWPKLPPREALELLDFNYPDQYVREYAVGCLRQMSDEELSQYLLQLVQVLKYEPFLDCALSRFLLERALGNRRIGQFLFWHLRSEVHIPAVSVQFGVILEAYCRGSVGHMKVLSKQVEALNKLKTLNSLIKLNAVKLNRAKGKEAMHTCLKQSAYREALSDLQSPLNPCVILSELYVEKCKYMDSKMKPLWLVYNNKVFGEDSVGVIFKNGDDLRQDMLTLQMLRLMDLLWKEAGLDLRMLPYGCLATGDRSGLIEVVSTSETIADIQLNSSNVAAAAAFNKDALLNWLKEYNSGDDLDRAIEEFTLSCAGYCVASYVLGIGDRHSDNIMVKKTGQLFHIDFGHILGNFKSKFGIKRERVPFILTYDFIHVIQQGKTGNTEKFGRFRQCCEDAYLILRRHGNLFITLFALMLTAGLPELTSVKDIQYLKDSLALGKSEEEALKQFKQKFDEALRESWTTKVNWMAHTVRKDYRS
PIK3CD (Human), sequence (O00329 whole entry, looked up): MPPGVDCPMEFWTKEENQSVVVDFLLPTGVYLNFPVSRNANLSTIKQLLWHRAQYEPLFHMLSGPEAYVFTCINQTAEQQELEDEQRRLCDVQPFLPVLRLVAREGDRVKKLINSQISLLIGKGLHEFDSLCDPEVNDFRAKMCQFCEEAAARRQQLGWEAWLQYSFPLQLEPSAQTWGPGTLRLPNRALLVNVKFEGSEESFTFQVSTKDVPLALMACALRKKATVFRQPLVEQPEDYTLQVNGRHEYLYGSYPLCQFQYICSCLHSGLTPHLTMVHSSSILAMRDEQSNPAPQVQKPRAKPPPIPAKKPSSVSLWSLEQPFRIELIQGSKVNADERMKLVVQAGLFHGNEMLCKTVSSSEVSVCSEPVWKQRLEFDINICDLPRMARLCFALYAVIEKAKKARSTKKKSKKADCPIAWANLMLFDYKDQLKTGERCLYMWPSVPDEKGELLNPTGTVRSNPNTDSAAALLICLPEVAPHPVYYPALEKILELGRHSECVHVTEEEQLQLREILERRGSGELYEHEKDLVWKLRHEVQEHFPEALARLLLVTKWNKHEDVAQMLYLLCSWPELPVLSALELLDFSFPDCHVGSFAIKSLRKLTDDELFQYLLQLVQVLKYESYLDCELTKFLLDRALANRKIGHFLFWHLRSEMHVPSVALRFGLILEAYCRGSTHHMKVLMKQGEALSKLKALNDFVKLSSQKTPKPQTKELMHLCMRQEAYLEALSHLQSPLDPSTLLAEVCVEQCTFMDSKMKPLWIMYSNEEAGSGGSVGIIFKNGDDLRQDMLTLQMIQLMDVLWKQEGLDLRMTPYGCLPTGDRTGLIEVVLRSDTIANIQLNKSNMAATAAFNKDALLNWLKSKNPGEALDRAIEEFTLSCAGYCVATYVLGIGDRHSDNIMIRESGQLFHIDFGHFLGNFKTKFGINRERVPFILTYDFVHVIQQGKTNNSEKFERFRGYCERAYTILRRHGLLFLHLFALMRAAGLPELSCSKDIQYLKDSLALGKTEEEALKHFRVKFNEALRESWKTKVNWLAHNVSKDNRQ
PIK3CG (human), sequence (P48736 whole entry, looked up): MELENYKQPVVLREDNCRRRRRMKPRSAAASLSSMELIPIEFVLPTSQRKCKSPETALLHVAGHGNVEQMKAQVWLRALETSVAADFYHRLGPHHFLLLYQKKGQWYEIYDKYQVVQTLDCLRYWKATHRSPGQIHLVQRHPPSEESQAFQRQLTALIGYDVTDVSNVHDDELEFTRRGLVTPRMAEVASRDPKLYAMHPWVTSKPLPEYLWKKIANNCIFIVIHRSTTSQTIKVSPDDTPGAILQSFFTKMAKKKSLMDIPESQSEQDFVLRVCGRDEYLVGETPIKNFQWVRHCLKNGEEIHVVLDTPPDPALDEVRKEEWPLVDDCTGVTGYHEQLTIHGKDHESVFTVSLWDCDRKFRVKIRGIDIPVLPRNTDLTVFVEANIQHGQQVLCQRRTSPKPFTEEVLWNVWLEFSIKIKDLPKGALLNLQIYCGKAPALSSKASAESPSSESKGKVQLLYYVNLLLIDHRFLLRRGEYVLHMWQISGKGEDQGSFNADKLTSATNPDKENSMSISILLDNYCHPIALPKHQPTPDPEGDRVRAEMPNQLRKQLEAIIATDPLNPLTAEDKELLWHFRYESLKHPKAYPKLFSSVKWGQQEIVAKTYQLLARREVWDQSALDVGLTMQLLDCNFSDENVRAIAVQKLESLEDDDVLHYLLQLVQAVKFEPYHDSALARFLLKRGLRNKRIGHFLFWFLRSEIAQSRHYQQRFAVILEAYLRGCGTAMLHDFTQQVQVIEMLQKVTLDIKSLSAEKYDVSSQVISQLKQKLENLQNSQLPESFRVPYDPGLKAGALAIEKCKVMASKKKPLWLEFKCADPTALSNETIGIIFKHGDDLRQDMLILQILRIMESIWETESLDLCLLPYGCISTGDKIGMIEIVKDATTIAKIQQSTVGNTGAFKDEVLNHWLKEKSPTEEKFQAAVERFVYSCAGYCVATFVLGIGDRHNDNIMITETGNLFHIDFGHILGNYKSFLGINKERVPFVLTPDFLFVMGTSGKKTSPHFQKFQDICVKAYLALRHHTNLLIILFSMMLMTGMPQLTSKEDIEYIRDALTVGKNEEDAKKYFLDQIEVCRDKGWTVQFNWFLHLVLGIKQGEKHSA

In the case of `Cc1ncc(C#Cc2cccc3cc([C@H](C)NC(=O)c4c(N)nn5cccnc45)n(-c4ccccc4)c(=O)c23)n1C`, the IC50 at PIK3CD (Human) [1] was in the range of 500 to 1000 nM; against PIK3CB (Human) it was 5000 to 10000 nM; against PIK3CD (Human) [2], 5000 to 10000 nM; at PIK3CG (human), 1 to 100 nM.

As to `COCC#Cc1cccc2cc([C@H](C)NC(=O)c3c(N)nn4cccnc34)n(-c3ccccc3)c(=O)c12`, the IC50 against PIK3CD (Human) [1] fell in the range of 100 to 500 nM; against PIK3CB (Human), 1000 to 5000 nM; against PIK3CD (Human) [2], 1000 to 5000 nM; against PIK3CG (human) it was 1 to 100 nM.

Regarding `Cc1nc(C)c(C#Cc2cccc3cc([C@H](C)NC(=O)c4c(N)nn5cccnc45)n(-c4ccccc4)c(=O)c23)s1`, the 50% inhibitory concentration (IC50) was in the range of 1000 to 10000 nM at PIK3CD (Human) [1], 5000 to 10000 nM against PIK3CB (Human), 5000 to 10000 nM against PIK3CD (Human) [2] and 500 to 1000 nM on PIK3CG (human).

On to `C#Cc1cccc2nc([C@H](C)NC(=O)c3c(N)nn4cccnc34)n(-c3ccccc3)c(=O)c12`, for which the IC50 was in the range of 1 to 100 nM against PIK3CD (Human) [1], 1000 to 5000 nM against PIK3CB (Human), 1000 to 5000 nM on PIK3CD (Human) [2] and 1 to 100 nM at PIK3CG (human).

As to `C[C@H](NC(=O)c1c(N)nn2cccnc12)c1cc2cccc(C#Cc3ccnn3C)c2c(=O)n1-c1ccccc1`, the half-inhibitory concentration (IC50) against PIK3CD (Human) [1] was 500 to 1000 nM; against PIK3CB (Human), 5000 to 10000 nM; at PIK3CD (Human) [2], 5000 to 10000 nM; on PIK3CG (human), 100 to 500 nM.

With `CC#Cc1cccc2nc([C@H](C)NC(=O)c3c(N)nn4cccnc34)n(-c3ccccc3)c(=O)c12`, the IC50 was in the range of 1 to 100 nM at PIK3CD (Human) [1], 1000 to 5000 nM on PIK3CB (Human), 500 to 1000 nM against PIK3CD (Human) [2] and 1 to 100 nM against PIK3CG (human).

For `Cc1ccc(C#Cc2cccc3cc([C@H](C)NC(=O)c4c(N)nn5cccnc45)n(-c4ccccc4)c(=O)c23)cn1`, the concentration for half-maximal inhibition (IC50) at PIK3CD (Human) [1] is 500 to 1000 nM; on PIK3CB (Human) it was 5000 to 10000 nM; against PIK3CD (Human) [2] it was 5000 to 10000 nM; against PIK3CG (human), 1 to 100 nM.

For the compound `CC#Cc1cccc2cc(C(C)NC(=O)c3c(N)nn4cccnc34)c(-c3ccccc3)nc12` (configuration not stated), the IC50 against PIK3CD (Human) [1] was in the range of 1 to 100 nM; on PIK3CB (Human), 1000 to 5000 nM; on PIK3CD (Human) [2], 1000 to 5000 nM; against PIK3CG (human), 100 to 500 nM.

As to `C[C@H](NC(=O)c1c(N)nn2cccnc12)c1cc2cccc(C#CC3CCCCC3)c2c(=O)n1-c1ccccc1`, the IC50 at PIK3CD (Human) [1] lay within 1000 to 10000 nM; on PIK3CB (Human), 5000 to 10000 nM; on PIK3CD (Human) [2] it was 5000 to 10000 nM; at PIK3CG (human), 1000 to 5000 nM.

With `COc1cc(C#Cc2cccc3cc([C@H](C)NC(=O)c4c(N)nn5cccnc45)n(-c4ccccc4)c(=O)c23)ccn1`, the IC50 on PIK3CD (Human) [1] lay within 100 to 500 nM; against PIK3CB (Human), 5000 to 10000 nM; on PIK3CD (Human) [2], 5000 to 10000 nM; against PIK3CG (human), 1000 to 5000 nM.

For `C[C@H](NC(=O)c1c(N)nn2cccnc12)c1cc2cccc(C#Cc3ccn[nH]3)c2c(=O)n1-c1ccccc1`, the IC50 on PIK3CD (Human) [1] was in the range of 100 to 500 nM; at PIK3CB (Human), 5000 to 10000 nM; on PIK3CD (Human) [2], 5000 to 10000 nM; on PIK3CG (human) it was 100 to 500 nM.

On to `C[C@H](NC(=O)c1c(N)nn2cccnc12)c1cc2cccc(CC(=O)c3cn[nH]c3)c2c(=O)n1-c1ccccc1`, for which the IC50 was in the range of 100 to 500 nM at PIK3CD (Human) [1], 5000 to 10000 nM against PIK3CB (Human), 1000 to 5000 nM on PIK3CD (Human) [2] and 500 to 1000 nM on PIK3CG (human).

As for `Cc1nn(C)cc1C#Cc1cccc2cc([C@H](C)NC(=O)c3c(N)nn4cccnc34)n(-c3ccccc3)c(=O)c12`, the IC50 against PIK3CD (Human) [1] lay in the range of 500 to 1000 nM; on PIK3CB (Human) it was 5000 to 10000 nM; against PIK3CD (Human) [2], 5000 to 10000 nM; at PIK3CG (human), 100 to 500 nM.

As to `Cc1ncsc1C#Cc1cccc2cc([C@H](C)NC(=O)c3c(N)nn4cccnc34)n(-c3ccccc3)c(=O)c12`, the 50% inhibitory concentration (IC50) lay within 1000 to 10000 nM against PIK3CD (Human) [1], 5000 to 10000 nM at PIK3CB (Human), 5000 to 10000 nM on PIK3CD (Human) [2] and 1000 to 5000 nM at PIK3CG (human).

On to `Cc1nn(C)c(C)c1C#Cc1cccc2cc([C@H](C)NC(=O)c3c(N)nn4cccnc34)n(-c3ccccc3)c(=O)c12`, for which the IC50 on PIK3CD (Human) [1] fell in the range of 1000 to 10000 nM; at PIK3CB (Human) it was 5000 to 10000 nM; against PIK3CD (Human) [2], 5000 to 10000 nM; at PIK3CG (human), 1000 to 5000 nM.

In the case of `C[C@H](NC(=O)c1c(N)nn2cccnc12)c1cc2cccc(C#CC3CCOC3)c2c(=O)n1-c1ccccc1` (some centres not stated), the half-maximal inhibitory concentration (IC50) against PIK3CD (Human) [1] was 100 to 500 nM; against PIK3CB (Human) it was 5000 to 10000 nM; against PIK3CD (Human) [2] it was 5000 to 10000 nM; against PIK3CG (human), 1 to 100 nM.

In the case of `C[C@H](NC(=O)c1cnn2cccnc12)c1cc2cccc(C#Cc3cnn(C)c3)c2c(=O)n1-c1ccccc1`, the 50% inhibitory concentration (IC50) against PIK3CD (Human) [1] was 1000 to 10000 nM; against PIK3CB (Human), 5000 to 10000 nM; on PIK3CD (Human) [2], 5000 to 10000 nM; at PIK3CG (human), 100 to 500 nM.

As for `C#Cc1cccc2nc([C@H](C)NC(=O)c3c(N)nn4cccnc34)n(-c3ccc(F)c(F)c3)c(=O)c12`, the concentration for half-maximal inhibition (IC50) against PIK3CD (Human) [1] was 100 to 500 nM; against PIK3CB (Human), 5000 to 10000 nM; against PIK3CD (Human) [2] it was 5000 to 10000 nM; against PIK3CG (human), 100 to 500 nM.

With `Cc1ccncc1C#Cc1cccc2cc([C@H](C)NC(=O)c3c(N)nn4cccnc34)n(-c3ccccc3)c(=O)c12`, the IC50 lay in the range of 1000 to 10000 nM against PIK3CD (Human) [1], 5000 to 10000 nM against PIK3CB (Human), 5000 to 10000 nM against PIK3CD (Human) [2] and 500 to 1000 nM at PIK3CG (human).

In the case of `C[C@H](NC(=O)c1c(N)nn2cccnc12)c1cc2cccc(C#Cc3ccncc3)c2c(=O)n1-c1ccccc1`, the IC50 against PIK3CD (Human) [1] was in the range of 100 to 500 nM; on PIK3CB (Human) it was 5000 to 10000 nM; on PIK3CD (Human) [2], 5000 to 10000 nM; at PIK3CG (human), 100 to 500 nM.

Consider `C[C@H](NC(=O)c1c(N)nn2cccnc12)c1cc2cccc(CC(=O)c3cnn(C)c3)c2c(=O)n1-c1ccccc1`, for which the IC50 against PIK3CD (Human) [1] was 100 to 500 nM; on PIK3CB (Human), 5000 to 10000 nM; on PIK3CD (Human) [2] it was 5000 to 10000 nM; against PIK3CG (human), 500 to 1000 nM.

As to `C[C@H](NC(=O)c1c(N)nn2cccnc12)c1cc2cccc(C#Cc3ccc(=O)n(C)c3)c2c(=O)n1-c1ccccc1`, the IC50 fell in the range of 100 to 500 nM on PIK3CD (Human) [1], 5000 to 10000 nM against PIK3CB (Human), 1000 to 5000 nM against PIK3CD (Human) [2] and 1 to 100 nM at PIK3CG (human).

On to `C[C@H](NC(=O)c1c(N)nn2cccnc12)c1cc2cccc(C#CC3CC3)c2c(=O)n1-c1ccccc1`, for which the IC50 against PIK3CD (Human) [1] was 100 to 500 nM; at PIK3CB (Human), 1000 to 5000 nM; against PIK3CD (Human) [2], 1000 to 5000 nM; on PIK3CG (human) it was 100 to 500 nM.

As for `C[C@H](NC(=O)c1c(N)nn2cccnc12)c1cc2cccc(C#Cc3cn[nH]c3)c2c(=O)n1-c1ccccc1`, the IC50 was 100 to 500 nM against PIK3CD (Human) [1], 1000 to 5000 nM against PIK3CB (Human), 5000 to 10000 nM against PIK3CD (Human) [2] and 1 to 100 nM at PIK3CG (human).

For `C[C@H](NC(=O)c1c(N)nn2cccnc12)c1cc2cccc(C#CC(C)(C)O)c2c(=O)n1-c1ccccc1`, the IC50 on PIK3CD (Human) [1] fell in the range of 1000 to 10000 nM; against PIK3CB (Human) it was 5000 to 10000 nM; against PIK3CD (Human) [2], 5000 to 10000 nM; at PIK3CG (human), 100 to 500 nM.

For the compound `C#Cc1cccc2nc([C@H](C)NC(=O)c3c(N)nn4cccnc34)n(-c3ccc(F)cc3)c(=O)c12`, the IC50 against PIK3CD (Human) [1] lay in the range of 1 to 100 nM; at PIK3CB (Human) it was 5000 to 10000 nM; on PIK3CD (Human) [2] it was 1000 to 5000 nM; against PIK3CG (human), 1 to 100 nM.

On to `CC(=O)N1CCC(C#Cc2cccc3cc([C@H](C)NC(=O)c4c(N)nn5cccnc45)n(-c4ccccc4)c(=O)c23)CC1`, for which the IC50 on PIK3CD (Human) [1] was 500 to 1000 nM; against PIK3CB (Human) it was 5000 to 10000 nM; at PIK3CD (Human) [2], 5000 to 10000 nM; on PIK3CG (human), 100 to 500 nM.

`C[C@H](NC(=O)c1c(N)nn2cccnc12)c1cc2cccc(C#CC3CCOCC3)c2c(=O)n1-c1ccccc1`: the IC50 fell in the range of 1 to 100 nM against PIK3CD (Human) [1], 5000 to 10000 nM against PIK3CB (Human), 5000 to 10000 nM against PIK3CD (Human) [2] and 100 to 500 nM against PIK3CG (human).
